From a compilation of properties of binary mixtures (doi:10.1016/j.molliq.2017.03.036)

Assay: xn = mol fraction of the nth substance listed
Details: 101 kPa

CN(CCO)CCO + CC(=O)[O-].CC[n+]1ccn(C)c1
x2 = 0
Details	electrical conductivity [S/m]	viscosity [mPa·s]
288.15 K	0.0002	137.6
293.15 K	0.0003	101.2
298.15 K	0.0004	74.8
303.15 K	0.0005	57.2
308.15 K	0.0007	43
313.15 K	0.0009	34.1
318.15 K	0.0011	26.1
323.15 K	0.0014	21.6
333.15 K	0.0024	14.19
348.15 K	0.0046	8.13
353.15 K	0.0056	7.09

CC(=O)[O-].CC[n+]1ccn(C)c1 + CN(CCO)CCO
Details	electrical conductivity [S/m]	viscosity [mPa·s]
288.15 K, x1 = 0.1002	0.01	144.1
288.15 K, x1 = 0.2997	0.048	155.8
288.15 K, x1 = 0.4001	0.059	163
288.15 K, x1 = 0.5998	0.075	193
288.15 K, x1 = 0.7003	0.087	203
288.15 K, x1 = 0.7998	0.103	217
288.15 K, x1 = 0.8999	0.124	236
288.15 K, x1 = 1	0.151	288
293.15 K, x1 = 0.1002	0.014	107.2
293.15 K, x1 = 0.2002	0.044	112.8
293.15 K, x1 = 0.2997	0.059	118.3
293.15 K, x1 = 0.4995	0.085	128.7
293.15 K, x1 = 0.5998	0.099	140.6
293.15 K, x1 = 0.7003	0.116	147.3
293.15 K, x1 = 0.7998	0.138	154.8
293.15 K, x1 = 0.8999	0.169	170
293.15 K, x1 = 1	0.201	197
298.15 K, x1 = 0.1002	0.019	80.3
298.15 K, x1 = 0.2002	0.054	85.1
298.15 K, x1 = 0.2997	0.073	88.7
298.15 K, x1 = 0.4001	0.089	93.2
298.15 K, x1 = 0.5998	0.13	106.5
298.15 K, x1 = 0.7003	0.152	110.8
298.15 K, x1 = 0.7998	0.184	114.1
298.15 K, x1 = 0.8999	0.227	127.2
298.15 K, x1 = 1	0.278	140
303.15 K, x1 = 0.1002	0.025	60.8
303.15 K, x1 = 0.2997	0.091	68.6
303.15 K, x1 = 0.4001	0.115	71.9
303.15 K, x1 = 0.4995	0.148	75.7
303.15 K, x1 = 0.7003	0.204	83.8
303.15 K, x1 = 0.7998	0.242	86.6
303.15 K, x1 = 0.8999	0.295	95.8
308.15 K, x1 = 0.1002	0.032	47.2
308.15 K, x1 = 0.2002	0.079	50.7
308.15 K, x1 = 0.2997	0.11	53.3
308.15 K, x1 = 0.4001	0.143	56.1
308.15 K, x1 = 0.4995	0.185	59.9
308.15 K, x1 = 0.5998	0.217	64.3
308.15 K, x1 = 0.7003	0.271	65.4
308.15 K, x1 = 0.7998	0.315	66.8
308.15 K, x1 = 1	0.461	78.3
313.15 K, x1 = 0.1002	0.04	37.2
313.15 K, x1 = 0.2002	0.093	40.3
313.15 K, x1 = 0.2997	0.134	42.9
313.15 K, x1 = 0.4001	0.175	45
313.15 K, x1 = 0.5998	0.273	51.7
313.15 K, x1 = 0.8999	0.486	58.1
313.15 K, x1 = 1	0.585	60.4
318.15 K, x1 = 0.2002	0.112	32
318.15 K, x1 = 0.2997	0.163	34.3
318.15 K, x1 = 0.4001	0.215	36.4
318.15 K, x1 = 0.4995	0.28	39.7
318.15 K, x1 = 0.5998	0.342	41.3
318.15 K, x1 = 0.7998	0.505	43.7
323.15 K, x1 = 0.2002	0.132	26.1
323.15 K, x1 = 0.2997	0.194	27.3
323.15 K, x1 = 0.4001	0.259	29.8
323.15 K, x1 = 0.4995	0.344	32.7
323.15 K, x1 = 0.5998	0.423	33.9
323.15 K, x1 = 0.7003	0.519	35.1
323.15 K, x1 = 0.7998	0.624	35.9
323.15 K, x1 = 0.8999	0.736	38.3
328.15 K, x1 = 0.2002	0.157	21.4
328.15 K, x1 = 0.2997	0.23	22.8
328.15 K, x1 = 0.4001	0.311	25
328.15 K, x1 = 0.7003	0.628	28.7
328.15 K, x1 = 0.7998	0.763	29.4
328.15 K, x1 = 0.8999	0.886	30.8
328.15 K, x1 = 1	1.06	31.2
333.15 K, x1 = 0.1002	0.09	15.76
333.15 K, x1 = 0.2002	0.184	17.9
333.15 K, x1 = 0.2997	0.273	19.4
333.15 K, x1 = 0.4001	0.371	20.6
333.15 K, x1 = 0.4995	0.495	22
333.15 K, x1 = 0.5998	0.628	23
333.15 K, x1 = 0.7003	0.755	23.8
333.15 K, x1 = 0.7998	0.909	24.5
338.15 K, x1 = 0.1002	0.108	13
338.15 K, x1 = 0.2002	0.215	14.46
338.15 K, x1 = 0.2997	0.322	16.9
338.15 K, x1 = 0.4001	0.437	17.3
338.15 K, x1 = 0.4995	0.583	18.7
338.15 K, x1 = 0.5998	0.742	19.3
338.15 K, x1 = 0.7003	0.896	19.9
338.15 K, x1 = 0.7998	1.08	20.5
338.15 K, x1 = 0.8999	1.25	21.1
338.15 K, x1 = 1	1.47	21.8
343.15 K, x1 = 0.1002	0.126	10.85
343.15 K, x1 = 0.2002	0.249	12.19
343.15 K, x1 = 0.2997	0.377	14.5
343.15 K, x1 = 0.4995	0.684	16.1
343.15 K, x1 = 0.5998	0.882	16.6
343.15 K, x1 = 0.7003	1.05	17.3
343.15 K, x1 = 0.7998	1.26	17.7
343.15 K, x1 = 0.8999	1.46	18.2
343.15 K, x1 = 1	1.71	18.8
348.15 K, x1 = 0.1002	0.148	9.17
348.15 K, x1 = 0.2002	0.287	10.36
348.15 K, x1 = 0.2997	0.441	12.49
348.15 K, x1 = 0.4001	0.605	12.74
348.15 K, x1 = 0.5998	1.04	14.22
348.15 K, x1 = 0.7003	1.22	14.67
348.15 K, x1 = 0.7998	1.46	15.22
348.15 K, x1 = 0.8999	1.68	15.69
348.15 K, x1 = 1	1.96	16.01
353.15 K, x1 = 0.1002	0.172	8.38
353.15 K, x1 = 0.2997	0.511	10.86
353.15 K, x1 = 0.4001	0.7	11.03
353.15 K, x1 = 0.4995	0.919	12.24
353.15 K, x1 = 0.7003	1.42	13.06
353.15 K, x1 = 0.8999	1.93	13.8
353.15 K, x1 = 1	2.22	14.07
